The values below come from patent publication US4469704A, “2,3-Butanediol diester derivatives, process for producing the same, and an antiulcer drug containing the same” (SS Pharmaceutical Co., Ltd., priority 1980, dated 1984).

Where two headings read alike, the source gives them in different places. A value given as a limit tells only on which side of the number the result lay.

Data set [1] deals with ddy male mice. The data set is described as follows: Acute toxicity, intraperitoneal, 7 days observation. The format is in vivo. As to conditions: 1000 mg/kg intraperitoneally, groups of five ddy male mice. As to the method: (§1) ddy male mice, arranged in groups each consisting of five mice, were given intraperitoneally 1000 mg/kg of the test compounds Nos. 1-4, 8-10, 14-18, 21, 22, 24, 25, 28, 31, 34, 35, 37, 45, 46, 48, 54, 57, 60, 62, 64, 68, 70, and 71 (as shown in Table 1) dissolved in cotton seed oil.

Test in data set [2]: as above
As to conditions: mouse, ip; ddy male mice, intraperitoneally, dissolved in cotton seed oil, observation for seven days. The data set is classed as in vivo. Here is the method: as §1

Data set [3] concerns ulcer. In words: Antiulcer action: inhibition of indomethacin-induced gastric ulcer (ulcer index) in rats. The data set is classed as in vivo, Wister male rats. As to conditions: Rattus norvegicus, 1 h before indomethacin (25 mg/kg orally), read-out: Inhibition ratio. As to the method: Wister male rats each weighing about 200 g were given, after fasting for 24 hours, orally 25 mg/kg of indomethacin suspended in 1% aq. solution of sodium carboxymethylcellulose. Five hours later, 1 ml of physiological saline containing 2% brilliant blue was injected intravenously on their tails, and 10 minutes later, they were slaughtered and their stomachs were removed. After fixation by injecting 12 ml of 1% formalin aq. solution, the stomachs were extended on a flat plate and the injured parts on the stomach was measured with slide calipers. The sum of the lengths in mm was regarded as the ulcer index.
The test compound was emulsified or suspended in physiological saline containing one drop of polysolvate 80, and this was given orally or subcutaneously on the back one hour before administration of indomethacin.
The ulcer inhibition ratio was obtained from the following formula.
Inhibition ratio (%)=A/B×100
A: (ulcer index of control group)--(ulcer index of test group given the test compound)
B: (ulcer index of control group)

The test system of data set [4] is tumor. As to conditions: Japanese Patent Publication No. 36-13349; cited from earlier work.

On to `CCCCCC(=O)OC(C)C(C)OC(=O)c1cc(OC)c(OC)c(OC)c1` (centres unmarked) [Compound No. 62], for which the “survival / anomaly after seven days” value in data set [1] is “all the mice lived without any anomaly”. The same compound displayed an LD50 at 168 h in data set [2] greater than 1000 mg/kg. For the same compound, in data set [3] (sc, subcutaneously, 5 rats), the inhibition in vivo at 200 mg/kg came out at 50%.
For `CCCCCCCCCC(=O)OC(C)C(C)OC(=O)C=Cc1ccccc1` (centres unmarked) [Compound No. 25], the “survival / anomaly after seven days” value in data set [1] is “all the mice lived without any anomaly”. The compound further returned an LD50 at 168 h in data set [2] greater than 1000 mg/kg. Besides, in data set [3] (sc, subcutaneously, 5 rats), the inhibition in vivo at 200 mg/kg worked out at 95%.
For `CCCCCCCCCCC(=O)OC(C)C(C)OC(=O)CCCCC` (centres unmarked) [compound 17], the inhibition in vivo at 200 mg/kg in data set [3] (sc, subcutaneously, 5 rats) was found to be 37%.
As for `CCCCCC(=O)OC(C)C(C)OC(=O)C=Cc1ccc(C)cc1` (centres unmarked) [Compound No. 31], in data set [1], the “survival / anomaly after seven days” value is “all the mice lived without any anomaly”. The compound also had an LD50 at 168 h in data set [2] greater than 1000 mg/kg. Besides, the inhibition in vivo at 200 mg/kg in data set [3] (sc, subcutaneously, 5 rats) was 91%.
As for `CCCCCCCCCCC(=O)OC(C)C(C)OC(=O)CCCCCCCCCC` (centres unmarked) [Compound No. 4], the inhibition in vivo at 200 mg/kg in data set [3] (sc, subcutaneously, 5 rats) is 74%.
Same read-out and setting: next, `CCC=CCC=CCC=CCCCCCCCC(=O)OC(C)C(C)OC(=O)CCCCCCCC=CCC=CCC=CCC` (centres unmarked) [compound 16]: 86%.
As for `CCCCCC(=O)OC(C)C(C)OC(=O)C=Cc1ccccc1` (centres unmarked) [Compound No. 22], the “survival / anomaly after seven days” value in data set [1] was “all the mice lived without any anomaly”. In data set [2], this compound yielded an LD50 at 168 h greater than 1000 mg/kg. The inhibition in vivo at 200 mg/kg in data set [3] (sc, subcutaneously, 5 rats) came to 91%.
For the compound `CCCCCCCCCCC(=O)OC(C)C(C)OC(=O)C(C#N)=Cc1ccccc1` (centres unmarked) [compound 48], in data set [1], the “survival / anomaly after seven days” value is given as “all the mice lived without any anomaly”. In data set [2], this compound registered an LD50 at 168 h greater than 1000 mg/kg. Moreover, the inhibition in vivo at 200 mg/kg in data set [3] (po, orally, 4 rats) worked out at 84%. Moreover, in data set [3] (sc, 300 mg/kg, subcutaneously, 5 rats), the inhibition in vivo at 300 mg/kg was determined as 96%.
For the compound `CCCCCCCCCCC(=O)OC(C)C(C)OC(=O)C=Cc1ccc(OC)cc1` (centres unmarked) [Compound No. 35], the “survival / anomaly after seven days” value in data set [1] is “all the mice lived without any anomaly”. The LD50 at 168 h in data set [2] is greater than 1000 mg/kg. In addition, the inhibition in vivo at 200 mg/kg in data set [3] (sc, subcutaneously, 5 rats) was found to be 77%.
In the case of `CCCCCCCCCCC(=O)OC(C)C(C)OC(=O)c1cc(OC)c(OC)c(OC)c1` (centres unmarked) [Compound No. 68], the “survival / anomaly after seven days” value in data set [1] was “all the mice lived without any anomaly”. Besides, in data set [2], the LD50 at 168 h was greater than 1000 mg/kg. For the same compound, the inhibition in vivo at 200 mg/kg in data set [3] (sc, subcutaneously, 5 rats) turned out to be 89.3%.
The corresponding values for `CC(=Cc1ccccc1)C(=O)OC(C)C(C)OC(=O)C(C)=Cc1ccccc1` (centres unmarked) [compound 57] are “all the mice lived without any anomaly”, greater than 1000 mg/kg and 80%.
Regarding `CCCCCCCCC(=O)OC(C)C(C)OC(=O)CCCCCCCC` (centres unmarked) [Compound No. 2], the inhibition in vivo at 200 mg/kg in data set [3] (sc, subcutaneously, 5 rats) turned out to be 90%.
For the compound `CCCCCC(=O)OC(C)C(C)OC(=O)c1ccc(OC)cc1` (centres unmarked) [compound 60], the “survival / anomaly after seven days” value in data set [1] was “all the mice lived without any anomaly”. In data set [2], this compound had an LD50 at 168 h greater than 1000 mg/kg. For the same compound, the inhibition in vivo at 200 mg/kg in data set [3] (sc, subcutaneously, 5 rats) was 41.4%.
Consider `CCCCCCCCCCCCCC(=O)OC(C)C(C)OC(=O)CCCCCCCCCCCCC` (centres unmarked) [Compound No. 6], for which the inhibition in vivo at 200 mg/kg in data set [3] (sc, subcutaneously, 5 rats) came to 57%.
As for `CCCCCCCCCCC(=O)OC(C)C(C)OC(=O)COc1ccccc1` (centres unmarked) [Compound No. 71], the “survival / anomaly after seven days” value in data set [1] is listed as “all the mice lived without any anomaly”. This compound yielded an LD50 at 168 h in data set [2] greater than 1000 mg/kg. The inhibition in vivo at 200 mg/kg in data set [3] (sc, subcutaneously, 5 rats) was determined as 59.2%.
Taken in the same sequence, the figures for `CCCCCCCC(=O)OC(C)C(C)OC(=O)C(C#N)=Cc1ccccc1` (centres unmarked) [compound 45] were “all the mice lived without any anomaly”, greater than 1000 mg/kg and 84%.
Turning to `CCCCCCCCCCCCCCCC(=O)OC(C)C(C)OC(=O)CCCCCCCCCCCCCCC` (centres unmarked) [Compound No. 7], the inhibition in vivo at 200 mg/kg in data set [3] (sc, subcutaneously, 5 rats) turned out to be 30%.
As for `CCCCCCCCCCC(=O)OC(C)C(C)OC(=O)c1ccccc1` (centres unmarked) [compound 64], the “survival / anomaly after seven days” value in data set [1] was “all the mice lived without any anomaly”. The compound also came in with an LD50 at 168 h in data set [2] greater than 1000 mg/kg. Also, the inhibition in vivo at 200 mg/kg in data set [3] (sc, subcutaneously, 5 rats) was determined as 41.3%.
Regarding `CCCCCCCCCC(=O)OC(C)C(C)OC(=O)CCCCCCCCC` (centres unmarked) [Compound No. 3], the inhibition in vivo at 200 mg/kg in data set [3] (sc, subcutaneously, 5 rats) was 50%.
With `CCCCCCCCC(=O)OC(C)C(C)OC(=O)C=Cc1ccccc1` (centres unmarked) [compound 24], the “survival / anomaly after seven days” value in data set [1] was “all the mice lived without any anomaly”. Moreover, in data set [2], the LD50 at 168 h was greater than 1000 mg/kg. For the same compound, the inhibition in vivo at 200 mg/kg in data set [3] (sc, subcutaneously, 5 rats) amounted to 90%.
The corresponding values for `CCCCCCCCC(=O)OC(C)C(C)OC(=O)C(C#N)=Cc1ccccc1` (centres unmarked) [compound 46] are “all the mice lived without any anomaly”, greater than 1000 mg/kg and 56%.
Taken in the same sequence, the figures for `C=CCCCCCCCCC(=O)OC(C)C(C)OC(=O)C=Cc1ccccc1` (centres unmarked) [compound 28] were “all the mice lived without any anomaly”, greater than 1000 mg/kg and 62%.
`CCCCCCCC/C=C\CCCCCCCC(=O)OC(C)C(C)OC(=O)CCCCCCCCCC` (centres unmarked) [compound 21]: the “survival / anomaly after seven days” value in data set [1] is given as “all the mice lived without any anomaly”. This compound also displayed an LD50 at 168 h in data set [2] greater than 1000 mg/kg.
Regarding `CCCCCC(=O)OC(C)C(C)OC(=O)C=Cc1ccc(OC)cc1` (centres unmarked) [compound 34], in data set [1], the “survival / anomaly after seven days” value is “all the mice lived without any anomaly”. The compound also displayed an LD50 at 168 h in data set [2] greater than 1000 mg/kg. In data set [3] (sc, subcutaneously, 5 rats), the inhibition in vivo at 200 mg/kg was determined as 75%.
For the compound coixenolide, the antitumor effect result in data set [4] was “has an antitumor effect”.
For the compound `CCCCCCCCCCC(=O)OC(C)C(C)OC(=O)CCc1ccccc1` (centres unmarked) [Compound No. 70], the “survival / anomaly after seven days” value in data set [1] was “all the mice lived without any anomaly”. For the same compound, in data set [2], the LD50 at 168 h is greater than 1000 mg/kg. The inhibition in vivo at 200 mg/kg in data set [3] (sc, subcutaneously, 5 rats) came out at 45.9%.
`CCCCCCCCCCC(=O)OC(C)C(C)OC(=O)C=Cc1cc(OC)c(OC)c(OC)c1` (centres unmarked) [Compound No. 40]: in data set [3] (sc, subcutaneously, 5 rats), the inhibition in vivo at 200 mg/kg was 99%.
As to `CCCCCC(=O)OC(C)C(C)OC(=O)C=Cc1ccc(Cl)cc1` (centres unmarked) [compound 37], the “survival / anomaly after seven days” value in data set [1] is reported as “all the mice lived without any anomaly”. In data set [2], the LD50 at 168 h was greater than 1000 mg/kg. The inhibition in vivo at 200 mg/kg in data set [3] (sc, subcutaneously, 5 rats) worked out at 85%.
As to `CCCCCCCC(=O)OC(C)C(C)OC(=O)CCCCCCC` (centres unmarked) [Compound No. 1], the inhibition in vivo at 200 mg/kg in data set [3] (sc, subcutaneously, 5 rats) is 92%.
On the same count and under the same terms, the same measure for `CCCCCC=CCC=CCCCCCCCC(=O)OC(C)C(C)OC(=O)CCCCCCCC=CCC=CCCCCC` (centres unmarked) [compound 15]: 47%.
On to `CCCCCC(=O)OC(C)C(C)OC(=O)C(C)=Cc1ccccc1` (centres unmarked) [compound 54], for which, in data set [1], the “survival / anomaly after seven days” value is listed as “all the mice lived without any anomaly”. Besides, the LD50 at 168 h in data set [2] is greater than 1000 mg/kg. In data set [3] (sc, subcutaneously, 5 rats), the inhibition in vivo at 200 mg/kg was 87%.
